ChEMBL document CHEMBL4190351, “Synthesis and biological evaluation of novel 6,11-dihydro-5H-benzo[e]pyrimido- [5,4-b][1,4]diazepine derivatives as potential c-Met inhibitors” (Eur J Med Chem, 2017)

What was measured:
[1] = molecular target: Hepatocyte growth factor receptor (Homo sapiens, UniProt P08581); experiment: Inhibition of cMet (unknown origin) using poly(Glu, Tyr)4:1 substrate and ATP incubated fro 60 mins by ELISA
[2] = test system: PC-3; experiment: Cytotoxicity in human PC3 cells incubated for 72 hrs by sulforhodamine B assay; settings: PC-3, 72 h
[3] = test system: PANC-1; experiment: Cytotoxicity in human PANC1 cells incubated for 72 hrs by sulforhodamine B assay; settings: PANC-1, 72 h
[4] = test system: HepG2; experiment: Cytotoxicity in human HepG2 cells incubated for 72 hrs by sulforhodamine B assay; settings: HepG2, 72 h
[5] = test system: CAKI-1; experiment: Cytotoxicity in human Caki1 cells incubated for 72 hrs by sulforhodamine B assay; settings: CAKI-1, 72 h

Chain of Hepatocyte growth factor receptor (P08581 whole entry): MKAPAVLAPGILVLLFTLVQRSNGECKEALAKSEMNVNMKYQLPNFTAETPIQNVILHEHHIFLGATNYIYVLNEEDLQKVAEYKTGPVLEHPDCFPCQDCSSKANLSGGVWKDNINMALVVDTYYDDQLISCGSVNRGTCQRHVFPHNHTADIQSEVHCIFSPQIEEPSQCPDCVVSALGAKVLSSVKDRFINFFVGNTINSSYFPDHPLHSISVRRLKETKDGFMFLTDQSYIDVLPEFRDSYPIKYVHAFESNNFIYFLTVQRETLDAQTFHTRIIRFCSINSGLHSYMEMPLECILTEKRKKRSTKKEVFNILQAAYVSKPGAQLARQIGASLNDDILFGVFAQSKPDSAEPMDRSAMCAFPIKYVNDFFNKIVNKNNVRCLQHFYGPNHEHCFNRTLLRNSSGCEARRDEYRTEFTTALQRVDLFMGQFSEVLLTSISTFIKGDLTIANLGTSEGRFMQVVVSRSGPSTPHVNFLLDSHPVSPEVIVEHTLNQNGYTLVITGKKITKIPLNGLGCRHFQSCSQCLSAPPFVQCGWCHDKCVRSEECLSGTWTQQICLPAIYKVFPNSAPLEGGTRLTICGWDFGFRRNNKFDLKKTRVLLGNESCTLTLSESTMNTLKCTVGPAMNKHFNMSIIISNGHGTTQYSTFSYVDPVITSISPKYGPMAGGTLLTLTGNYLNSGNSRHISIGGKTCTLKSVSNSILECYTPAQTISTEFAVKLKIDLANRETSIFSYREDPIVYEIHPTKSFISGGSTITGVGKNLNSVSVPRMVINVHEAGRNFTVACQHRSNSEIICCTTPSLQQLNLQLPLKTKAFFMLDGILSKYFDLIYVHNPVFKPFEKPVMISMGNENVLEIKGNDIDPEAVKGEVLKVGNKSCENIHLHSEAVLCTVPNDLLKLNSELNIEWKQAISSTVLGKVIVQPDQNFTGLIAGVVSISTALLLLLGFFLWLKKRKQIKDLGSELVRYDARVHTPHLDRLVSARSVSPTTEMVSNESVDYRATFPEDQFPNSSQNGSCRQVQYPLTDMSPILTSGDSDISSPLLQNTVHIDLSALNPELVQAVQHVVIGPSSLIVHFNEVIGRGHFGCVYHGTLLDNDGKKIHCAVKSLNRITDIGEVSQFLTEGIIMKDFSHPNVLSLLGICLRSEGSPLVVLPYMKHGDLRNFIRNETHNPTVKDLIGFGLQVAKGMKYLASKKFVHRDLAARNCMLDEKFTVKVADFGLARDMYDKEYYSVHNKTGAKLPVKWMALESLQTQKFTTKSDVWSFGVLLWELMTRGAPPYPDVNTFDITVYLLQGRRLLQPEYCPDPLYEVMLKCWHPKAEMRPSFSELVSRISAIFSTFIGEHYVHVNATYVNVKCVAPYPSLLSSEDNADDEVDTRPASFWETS

Row | Compound | IC50 [1] | further results
1 | O=C(Nc1ccc(F)cc1)C1(C(=O)Nc2ccc(Oc3ncnc4c3N=Cc3ccccc3O4)cc2)CC1 | > 1 µM | 
2 | COc1cc2c(cc1OC)Nc1ncnc(Oc3ccc(NC(=O)C4(C(=O)Nc5ccc(F)cc5)CC4)cc3)c1N(C)C2 | > 1 µM | 
3 | COc1cc2c(cc1OC)Nc1nccc(Oc3ccc(NC(=O)C4(C(=O)Nc5ccc(F)cc5)CC4)cc3F)c1N=C2 | > 1 µM | 
4 | COc1cc2c(cc1OC)Nc1ncnc(Oc3ccc(NC(=O)C4(C(=O)Nc5ccc(F)cc5)CC4)cc3F)c1N=C2 |  | IC50 [2]: 1.61 µM; IC50 [3]: 1.66 µM; IC50 [4]: 1.34 µM; IC50 [5]: 0.864 µM
5 | O=C(Nc1ccc(F)cc1)C1(C(=O)Nc2ccc(Oc3ncnc4c3NCc3ccccc3O4)cc2)CC1 | > 1 µM | 
6 | COc1cc2c(cc1OC)Nc1ncnc(Oc3ccc(NC(=O)C4(C(=O)Nc5ccc(F)cc5)CC4)cc3)c1N=C2 |  | IC50 [2]: 1.42 µM; IC50 [3]: 2.72 µM; IC50 [4]: 2.07 µM; IC50 [5]: 1.48 µM

The next lines start with results.

Row | IC50 [1] | Compound | further results
7 | > 1 µM | COc1cc2c(cc1OC)Nc1nccc(Oc3ccc(NC(=O)C4(C(=O)Nc5ccc(F)cc5)CC4)cc3)c1N=C2 | 
8 | > 1 µM | COc1cc2c(cc1OC)Nc1nccc(Oc3ccc(NC(=O)C4(C(=O)Nc5ccc(F)cc5)CC4)cc3)c1NC2 | 
9 | > 1 µM | COc1cc2c(cc1OC)C(=O)Nc1c(ncnc1Oc1ccc(NC(=O)C3(C(=O)Nc4ccc(F)cc4)CC3)cc1)N2 | 
10 | > 1 µM | COc1cc2c(cc1OC)C(=O)Nc1c(Oc3ccc(NC(=O)C4(C(=O)Nc5ccc(F)cc5)CC4)cc3)ccnc1N2 | 
